The experiment has as its target S. pneumoniae Topoisomerase IV ATPase (ParE) (Streptococcus pneumoniae serotype 4, UniProt Q59961). Description: S. pneumoniae Topoisomerase IV ATPase inhibition. Format: biochemical. To be noted: values marked * are an average of two or more data points, read-out: % Inh (13 μM) of S. pneumoniae Topoisomerase IV ATPase. In outline: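 Malachite green/ammonium molybdate phosphate detection, A650. 1.25 nM ParE, 160 μM ATP, sheared salmon sperm DNA 5 μg/ml, 20 mM Tris pH 8.0, 8.0 mM MgCl2. Controls: 2% DMSO = 0%, 20 μM EDTA = 100% inhibition; IC50 over 10 concentrations.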
Sequence of S. pneumoniae Topoisomerase IV ATPase (ParE) (Q59961 whole entry): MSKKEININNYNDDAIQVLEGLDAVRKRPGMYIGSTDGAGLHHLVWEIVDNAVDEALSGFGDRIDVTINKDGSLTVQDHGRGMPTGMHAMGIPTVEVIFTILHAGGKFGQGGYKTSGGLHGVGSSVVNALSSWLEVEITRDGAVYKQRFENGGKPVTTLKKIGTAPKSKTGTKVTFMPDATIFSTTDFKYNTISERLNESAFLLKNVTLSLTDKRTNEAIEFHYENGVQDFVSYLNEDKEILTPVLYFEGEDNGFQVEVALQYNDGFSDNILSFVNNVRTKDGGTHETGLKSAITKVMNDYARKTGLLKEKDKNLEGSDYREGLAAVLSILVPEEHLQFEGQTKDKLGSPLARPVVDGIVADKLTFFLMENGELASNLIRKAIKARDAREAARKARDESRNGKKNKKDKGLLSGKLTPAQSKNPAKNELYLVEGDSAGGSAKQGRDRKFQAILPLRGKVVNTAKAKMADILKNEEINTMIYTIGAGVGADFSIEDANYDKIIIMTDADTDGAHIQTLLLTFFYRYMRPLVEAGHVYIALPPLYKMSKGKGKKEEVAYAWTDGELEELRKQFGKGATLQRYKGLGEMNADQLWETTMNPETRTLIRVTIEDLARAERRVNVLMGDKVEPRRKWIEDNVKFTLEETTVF
In the case of `COc1cc(Nc2ncc(-c3c[nH]c(=O)c(C(=O)O)c3)c(-n3nc(C(F)(F)F)cc3C)n2)cc(OC)c1` [Example 1098, 5-(2-(3,5-Dimethoxyphenylamino)-4-(5-methyl-3-(trifluoromethyl)-1H-pyrazol-1-yl)pyrimidin-5-yl)-2-oxo-1,2-dihydropyridine-3-carboxylic acid], the inhibition at 13 µM is 100%. As to `Cc1cc(C)n(-c2nc(Nc3ccc(F)c(Cl)c3)ncc2-c2cncc(C(=O)O)c2)n1` [Example 316, 5-{2-[(3-chloro-4-fluorophenyl)amino]-4-(3,5-dimethyl-1H-pyrazol-1-yl)pyrimidin-5-yl}pyridine-3-carboxylic acid], the inhibition at 13 µM was 80%. In the case of `O=C(O)/C=C/c1cccc(-c2cnc(Nc3cccc4cc[nH]c34)nc2N2CCOCC2)c1` [Example 517, (2E)-3-{3-[2-(1H-indol-7-ylamino)-4-(morpholin-4-yl)pyrimidin-5-yl]phenyl}prop-2-enoic acid] it was 100%. In the case of `COc1cc(F)cc(Nc2ncc(-c3cccc(/C=C/C(=O)O)c3)c(N3CCOCC3)n2)c1` [Example 410, (E)-3-{3-[2-(3-Fluoro-5-methoxy-phenylamino)-4-morpholin-4-yl-pyrimidin-5-yl]-phenyl}-acrylic acid] it was 100%; in that of `COCCCNc1nc(Nc2ccc(F)c(Cl)c2)ncc1-c1ccc2cc(C(=O)OC)[nH]c2c1` [Example 1051, methyl 6-(2-(3-chloro-4-fluorophenylamino)-4-(3-methoxypropylamino)pyrimidin-5-yl)-1H-indole-2-carboxylate], 0%; in that of `COC(=O)c1cc2ccc(-c3cnc(Nc4ccc(F)c(Cl)c4)nc3N3CCOCC3)cc2[nH]1` [Example 1053, Methyl 6-(2-(3-chloro-4-fluorophenylamino)-4-morpholinopyrimidin-5-yl)-1H-indole-2-carboxylate], 0%. To `Cc1cc(C(F)(F)F)nn1-c1nc(Nc2ccc(F)c(Cl)c2)ncc1-c1cncc(C(=O)NCCN2CCOCC2)c1` [Example 932, 5-(2-(3-chloro-4-fluorophenylamino)-4-(5-methyl-3-(trifluoromethyl)-1H-pyrazol-1-yl)pyrimidin-5-yl)-N-(2-morpholinoethyl) nicotinamide] belongs 100%. With `Fc1ccc(Nc2ncc(-c3cncnc3)c(-n3nnc4ccccc43)n2)cc1Cl` [Example 89, 4-(1H-benzotriazol-1-yl)-N-(3-chloro-4-fluorophenyl)-5,5′-bipyrimidin-2-amine], the inhibition at 13 µM is 85.3%.

Regarding `O=C(O)c1cccc(-c2cnc(Nc3cc(F)cc(Cl)c3)nc2N2CCOCC2)n1` [Example 393, 6-[2-(3-Chloro-5-fluoro-phenylamino)-4-morpholin-4-yl-pyrimidin-5-yl]-pyridine-2-carboxylic acid], the inhibition at 13 µM is 82%.

In the case of `COc1cc(Nc2ncc(-c3cc(C(=O)O)cn(C)c3=O)c(-n3ccc(C(F)(F)F)n3)n2)cc(OC)c1` [Example 592, 5-(2-(3,5-dimethoxyphenylamino)-4-(3-(trifluoromethyl)-1H-pyrazol-1-yl)pyrimidin-5-yl)-1-methyl-6-oxo-1,6-dihydropyridine-3-carboxylic acid], the inhibition at 13 µM was found to be 100%.

Consider `COc1ncc(-c2cnc(Nc3cc(C)cc(C)c3)nc2-n2ccc(C(F)(F)F)n2)cc1C(=O)O` [Example 648, 5-{2-[(3,5-dimethylphenyl)amino]-4-[3-(trifluoromethyl)-1H-pyrazol-1-yl]pyrimidin-5-yl}-2-methoxypyridine-3-carboxylic acid], for which the inhibition at 13 µM was determined as 100%. Regarding `CC1CN(c2nc(Nc3ccc(F)c(Cl)c3)ncc2-c2cncc(C(=O)O)c2)CC(C)O1` (stereo not drawn) [Example 272, 5-(2-(3-chloro-4-fluorophenylamino)-4-(2,6-dimethylmorpholino)-pyrimidin-5-yl)nicotinic acid], the inhibition at 13 µM came to 81.1%.

These data come from US20100137313A1 (ASTRAZENECA AB, priority 2008, published 2010).
